Patent US10413559B2, “Method for treating demyelinating disease” (OCHANOMIZU UNIVERSITY, priority 2013, dated 2019)

Legend:
DNA polymerase α = molecular target: T1, DNA polymerase α (Homo sapiens, UniProt P09884); settings: Murakami-Murofushi et al. 1992; cited from earlier work
T1 sequence (P09884 1-1462): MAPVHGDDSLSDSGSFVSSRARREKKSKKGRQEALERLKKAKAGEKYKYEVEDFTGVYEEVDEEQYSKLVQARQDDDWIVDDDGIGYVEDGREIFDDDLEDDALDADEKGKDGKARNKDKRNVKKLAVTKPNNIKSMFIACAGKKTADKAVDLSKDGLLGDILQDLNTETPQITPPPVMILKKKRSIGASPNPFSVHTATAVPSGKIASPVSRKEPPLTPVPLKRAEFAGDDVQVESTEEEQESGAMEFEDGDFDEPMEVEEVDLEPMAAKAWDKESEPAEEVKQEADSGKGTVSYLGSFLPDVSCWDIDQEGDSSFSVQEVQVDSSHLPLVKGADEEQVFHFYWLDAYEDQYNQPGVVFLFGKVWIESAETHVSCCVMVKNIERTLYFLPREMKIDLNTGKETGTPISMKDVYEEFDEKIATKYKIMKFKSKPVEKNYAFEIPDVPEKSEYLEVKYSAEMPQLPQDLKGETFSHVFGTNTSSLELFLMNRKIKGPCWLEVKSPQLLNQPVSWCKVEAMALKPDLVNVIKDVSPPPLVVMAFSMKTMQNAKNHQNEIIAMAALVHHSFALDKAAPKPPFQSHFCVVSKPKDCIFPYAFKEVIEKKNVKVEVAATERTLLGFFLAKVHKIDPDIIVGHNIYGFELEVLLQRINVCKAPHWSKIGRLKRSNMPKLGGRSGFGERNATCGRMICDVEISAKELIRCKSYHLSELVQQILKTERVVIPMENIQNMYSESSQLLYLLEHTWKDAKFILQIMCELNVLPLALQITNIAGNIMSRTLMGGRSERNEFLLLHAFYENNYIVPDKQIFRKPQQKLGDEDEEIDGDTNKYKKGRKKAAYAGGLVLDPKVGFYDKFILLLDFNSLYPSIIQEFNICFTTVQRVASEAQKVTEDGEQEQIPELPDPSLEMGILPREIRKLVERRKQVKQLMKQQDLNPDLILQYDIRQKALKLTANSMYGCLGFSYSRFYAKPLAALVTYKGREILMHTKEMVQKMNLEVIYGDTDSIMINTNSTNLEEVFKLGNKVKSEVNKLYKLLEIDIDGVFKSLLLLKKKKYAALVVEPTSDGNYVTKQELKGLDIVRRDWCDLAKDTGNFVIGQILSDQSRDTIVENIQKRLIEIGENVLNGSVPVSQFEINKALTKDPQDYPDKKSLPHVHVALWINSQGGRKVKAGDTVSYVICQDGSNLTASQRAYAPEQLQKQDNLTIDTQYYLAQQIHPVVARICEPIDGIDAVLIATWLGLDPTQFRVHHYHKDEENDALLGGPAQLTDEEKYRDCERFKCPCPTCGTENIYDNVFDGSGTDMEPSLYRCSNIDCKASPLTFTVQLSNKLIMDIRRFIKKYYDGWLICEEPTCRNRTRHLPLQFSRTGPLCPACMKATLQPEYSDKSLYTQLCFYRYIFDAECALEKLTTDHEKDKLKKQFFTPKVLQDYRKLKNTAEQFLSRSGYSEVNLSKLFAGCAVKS

cultured animal cells = settings: Murakami-Murofushi et al. 1992; cited from earlier work
[1] = system: demyelination model mice (0.2% cuprizone), corpus callosum; assay: Histological staining (Black Gold II) of corpus callosum and evaluation of demyelination (Example 2); assay type: in vivo, C57BL/6j mice; settings: intraperitoneal 1.6 mg/kg/day for 5 weeks, FIG. 3, FIG. 4
Description: 10-week-old male C57BL/6j mice (Tokyo Laboratory Animals Science Co., Ltd., Tokyo, Japan) were fed by the discretionary intake of a mash feed (CLEA Japan, Inc.) that contained 0.2% cuprizone (biscyclohexanone oxalyl hydrazone; Merck KGaA, Darmstadt, Germany) for 5 weeks until demyelination progressed most, so as to produce demyelination model mice involving demyelination caused by oligodendrocyte-specific cell death. To obtain tissues to be used for histological analysis, a mouse was subjected to perfusion fixation through the heart with 4% paraformaldehyde, and the resulting brain tissues were then excised from the mouse. Thereafter, the tissues were immobilized and infiltrated with 30% sucrose. Thereafter, a frozen tissue block was prepared and was then sliced in a cryostat. The cPA used in the experiment was the same cPA (16:0) as that used in Example 1, and the carba-cPA was 2 ccPA (16:1). The cPA and 2 ccPA were chemically purified (Biochimica et Biophysica Acta, Emi Nozaki 2011), and were then dissolved in a 0.9% saline. […] For the analysis of the level of myelin, using Image J 1.46r software, the stained level in the corpus callosum area was measured, and the demyelination level was then evaluated, while setting the control as 100%.

[2] = system: GFAP, Iba1, PDGFRa, P2rx7, Nlrp3 gene expression in corpus callosum; assay: Genetic analysis using Q-PCR of corpus callosum tissues; assay type: in vivo, C57BL/6j mice; settings: cuprizone mice; intraperitoneal 1.6 mg/kg/day for 5 weeks; FIG. 6-8
Description: 10-week-old male C57BL/6j mice (Tokyo Laboratory Animals Science Co., Ltd., Tokyo, Japan) were fed by the discretionary intake of a mash feed (CLEA Japan, Inc.) that contained 0.2% cuprizone (biscyclohexanone oxalyl hydrazone; Merck KGaA, Darmstadt, Germany) for 5 weeks until demyelination progressed most, so as to produce demyelination model mice involving demyelination caused by oligodendrocyte-specific cell death.
To obtain mouse corpus callosum tissues to be used for genetic analysis, mouse brain was removed, and the corpus callosum tissues were then collected from the brain. […]
mRNA was extracted from the frozen corpus callosum tissues using ISOGEN (Nippon Gene Co., Ltd., Tokyo, Japan), was then dissolved in RNase free molecular grade water (Takara Bio Inc., Shiga, Japan), and was then preserved at −80° C. […] Gene expression was detected using 7900 Sequence Detection System (Applied Biosystems). […] The gene expression level was calculated by a ΔΔCT method. Data were analyzed by a relative quantification method. A relative change in the gene expression was analyzed, while setting the gene expression level in a control mouse at 100%.

[3] = system: demyelination model mice (0.2% cuprizone); assay: Test of motor function impairment using rotarod; assay type: in vivo, C57BL/6j mice; settings: intraperitoneal 1.6 mg/kg/day for 5 weeks, 28 rpm, 300 seconds, FIG. 9, FIG. 10
Description: 10-week-old male C57BL/6j mice (Tokyo Laboratory Animals Science Co., Ltd., Tokyo, Japan) were fed by the discretionary intake of a mash feed (CLEA Japan, Inc.) that contained 0.2% cuprizone (biscyclohexanone oxalyl hydrazone; Merck KGaA, Darmstadt, Germany) for 5 weeks until demyelination progressed most, so as to produce demyelination model mice involving demyelination caused by oligodendrocyte-specific cell death. The cPA used in the experiment was the same cPA (16:0) as that used in Example 1, and the carba-cPA was 2 ccPA (16:1). The cPA and 2 ccPA were chemically purified (Biochimica et Biophysica Acta, Emi Nozaki 2011), and were then dissolved in a 0.9% saline. […] The locomotion time on the rod was evaluated by measuring the time required for the mice to fall from the rotating rod within a record time of 300 seconds. Moreover, even after the mice had fallen from the rod, they were forced to continue their activity immediately after the falling, so that a total number of the activities from falling from the rod to holding on to the rod for 300 seconds (a number of falls and flips) was measured and evaluated. The data of the test of motor function impairment were analyzed according to a non-parametric method using a Kruskal-Wallis test. All of other data were analyzed according to a one-way ANOVA method using a Newman-Keulis test. […]

[4] = system: demyelination model mice (0.2% cuprizone); assay: Myelin level by Black Gold staining in cuprizone demyelination model mice (Example 1); assay type: in vivo, C57BL/6 mice; settings: intraperitoneal 40 μg/200 μl saline/day for 5 weeks, FIG. 2
Description: 10-week-old male C57BL/6 mice were fed with a mash feed containing 0.2% cuprizone for five weeks until the most significant demyelination occurred, so as to produce demyelination model mice. cPA and carba-cPA (cPA) powders were each dissolved in a saline, and the obtained solutions were each administered intraperitoneally at a dose of 40 μg/200 μl saline/day to the mice every day for 5 weeks. On the other hand, to negative control mice, a saline (200 μl/day) was intraperitoneally administered in the same manner as described above. The mice, to which the test compound had been administered, were subjected to perfusion fixation with 4% paraformaldehyde, and sections to be used for frozen tissue staining (30 μm) were then prepared in a cryostat (FIG. 1). The level of myelin in each mouse was measured by Black Gold staining, and the demyelination level was then measured based on the stained level (FIG. 2).

| Structure (SMILES) | activity of DNA polymerase α (DNA polymerase α) | proliferation of cultured animal cells (cultured animal cells) | demyelination level in corpus callosum (Black Gold II staining) [1] | nerve inflammation (gene expression by Q-PCR) [2] | motor function impairment (rotarod) [3] | level of myelin (Black Gold staining) versus control mouse [4] |
| --- | --- | --- | --- | --- | --- | --- |
| CCCCCC[C@@H]1C[C@@H]1CCCCCCCC(=O)OC[C@@H]1COP(=O)([O-])O1.[Na+] [PHYLPA] | suppressing the activity of DNA polymerase α | suppressing proliferation of cultured animal cells |  |  |  |  |
| CCCCCC/C=C\CCCCCCCC(=O)OCC1COP(=O)(O)C1 (stereo not shown) [2 ccPA, palmitoleoyl 2-carba-cPA] |  |  | demyelination is suppressed | nerve inflammation is suppressed | motor function impairment is improved | higher than the level of myelin in a control mouse |
| CCCCCCCCC=CCCCCCCCC(=O)OCC1COP(=O)(O)C1 (stereo not shown) [2 ccPA (18:1), oleoyl 2-carba-cPA] |  |  |  |  |  | the same results as in the case of cPA (16:0) and 2 ccPA (16:1) were obtained |
